Data reported in patent US9586999B2, “Methods and compositions related to improving properties of pharmacological agents targeting nervous system” (University of Utah Research Foundation, priority 2006, dated 2017).
Values joined by “and” are separate entries in the source; they are usually repeats but may differ in a detail not shown here. Equal values may be shown once. “Also recorded” adds a separate entry of the source. Read-outs that look alike come from different tables or passages of the source. Square brackets hold non-standard residues; d marks the D form. Ends that are not written are not given here. Ahx = NCCCCCC(=O)O

Columns and labels:
[1] = tested on: 6 Hz limbic seizures; test: 6 Hz limbic (psychomotor) seizure test; format: in vivo, mouse; settings: for ED50: Mus musculus, ip; for ED50 / ED50 in the 6 Hz limbic seizure model (in Table 14 in parentheses): i.p.; for effect against 6 Hz (22 mA) limbic seizures: administered into the ventricular space, CF-1 mice; for ED50 in the 6 Hz limbic seizure model (in Table 14 in parentheses): SAR analogs; for % Protection at 1, 2 and 4 hours afforded by a dose of 4 mg/kg, i.p. (result in words): all time points; for % Protection at 30 min (4 mg/kg, i.p.): octreotide and DSIP analogs
Text: Mice not displaying limbic seizures were considered protected.
As mentioned above, the 6 Hz seizure becomes more resistant to block by antiepileptic drugs as the current is increased from 22 mA to 44 mA.

[2] = tested on: formalin-induced paw licking; test: Mouse formalin test of inflammatory pain; format: in vivo; settings: for phase II response at the active dose: mouse formalin assay; for Active at: mouse formalin assay of inflammatory pain; for potency in mouse formalin assay: in vivo
Protocol: An injection of 0.5% formalin is made into the planter region of a mouse right hind paw. This elicits a distinct biphasic behavioral profile characterized by the mouse licking the affected paw. Immediately following the injection the mouse licks the paw for about 10 minutes. This is phase 1 (acute) and is followed by a brief latent period where there is little behavioral activity. A more prolonged period of about 20 to 30 minutes of paw licking ensues which constitutes phase 2 (inflammatory).
Prior to the administration of the active peptide, drug or vehicle each mouse undergoes a 15-minute conditioning period in one of several 6″ tall plexiglass observation tubes (4″ diameter) that are placed in front of a mirror. […] One hour after treatment, formalin was injected sub-dermally (20 μl; 27 gauge needle) into the plantar surface of the right hind foot. The bevel of the needle is placed facing down toward the skin surface. Following the injection of the formalin each animal is observed for first 2 minutes of each 5 minute epoch for a total of 45 minutes. The cumulative length of licking for each 2 minute time period was measured. An animal receiving the requisite volume of vehicle was alternated with each mouse given GAL-BBB2, Gal 1-16, or gabapentin. Animals were euthanized following the conclusion of the experiment.
Area under the curve (AUC) determination was made using the GraphPad Prism Version 3.03. Total AUC is calculated for both the test and control groups for both the acute and inflammatory phases. The AUC for individual animals for each phase is also calculated and converted to percentage of total AUC of control. The average percentages and SEM for both the drug treated and control were calculated and tested for significant difference.

[3] = tested on: sound-induced seizures; test: Frings audiogenic seizure-susceptible mouse model of reflex epilepsy; format: in vivo
Text: (§1) The ability of individual modified peptides to prevent seizures induced by sound in the AGS-susceptible Frings mouse model can be assessed at the time of peak effect (White et al., 1992). For this test, individual mice are placed into a plexiglass cylinder (diameter, 15 cm; height, 18 cm) fitted with an audio transducer (Model AS-ZC; FET Research and Development, Salt Lake City, Utah), and exposed to a sound stimulus of 110 decibels (11 KHz) delivered for 20 seconds. Sound-induced seizures are characterized by wild running followed by loss of righting reflex with forelimb and hindlimb tonic extension. Mice not displaying hindlimb tonic extension are considered protected.
The two modified galanin analogs (GAL-BBB1 and GAL-BBB2) were administered i.p. to a group of Frings audiogenic seizure susceptible mice in a dose of 4 mg/kg. At various times after administration (i.e., 15, 30, 60, 120, and 240 min) each mouse was placed into a cylindrical test chamber fitted with an audio transducer and challenged with a high-intensity sound stimulus (110 dB, 11 KHz for 20 sec). Animals not displaying tonic hind-limb extension were considered protected. […] In a subsequent study, anticonvulsant efficacy was quantitated at the time to peak effect (i.e., 1 h) in a dose-response study.
as §1, with “analogs” for “peptides”
At various times after administration (i.e., 15, 30, 60, 120, and 240 min) each mouse was placed into a cylindrical test chamber fitted with an audio transducer and challenged with a high-intensity sound stimulus (110 dB, 11 KHz for 20 sec).

[4] = stimulus intensity 22 mA, read-out: 22 mA (ED50, 6 Hz model)
[5] = stimulus intensity 32 mA, read-out: 32 mA (ED50, 6 Hz model)
[6] = stimulus intensity 44 mA, read-out: 44 mA (ED50, 6 Hz model)

CCC1(C)CC(=O)NC1=O (centres unmarked) [Ethosuximide, reference compound]
ED50 [1, 4]: 86.9 mg/kg
ED50 [1, 5]: 167 mg/kg
ED50 [1, 6]: 600 mg/kg

Nc1nnc(-c2cccc(Cl)c2Cl)c(N)n1 [Lamotrigine, reference compound]
ED50 [1, 4]: 4.4 mg/kg
ED50 [1, 5]: > 60 mg/kg
ED50 [1, 6]: > 60 mg/kg

O=C1NC(=O)C(c2ccccc2)(c2ccccc2)N1 [Phenytoin, reference compound]
ED50 [1, 4]: 9.4 mg/kg
ED50 [1, 5]: > 60 mg/kg
ED50 [1, 6]: > 60 mg/kg

CCCC(CCC)C(=O)O [Valproic acid, reference compound]
ED50 [1, 4]: 41.5 mg/kg
ED50 [1, 6]: 310 mg/kg

C[C@H](N)C(=O)NCC(=O)N[C@H]1CSSC[C@@H](C(=O)O)NC(=O)[C@H](CO)NC(=O)[C@H]([C@@H](C)O)NC(=O)[C@H](Cc2ccccc2)NC(=O)[C@H]([C@@H](C)O)NC(=O)[C@H](CCCCN)NC(=O)[C@H](Cc2c[nH]c3ccccc23)NC(=O)[C@H](Cc2ccccc2)NC(=O)[C@H](Cc2ccccc2)NC(=O)[C@H](CC(N)=O)NC(=O)[C@H](CCCCN)NC1=O [somatostatin, reference compound]
effect against 6 Hz (22 mA) limbic seizures [1]: effective

(Sar)WTLNSAGY(Ahx)KK(Lys-P)K [NAX 306-4]
% Protection at 2 hours afforded by a dose of 4 mg/kg, i.p. ([1]; 4 mg/kg i.p., 4 mg/kg): 0% and 0%, 0%
% Protection at 4 hours afforded by a dose of 4 mg/kg, i.p. ([1]; 4 mg/kg i.p., 4 mg/kg): 0% and 0%, 0%
ED50 in the 6 Hz limbic seizure model (in Table 14 in parentheses) [1]: (2.95 mg/kg)
activity in the second response phase of the inflammatory pain assay ([2]; 2.95 mg/kg): very active
phase II response at the active dose [2]: (“flat phase II”)
Active at [2]: 2.9 mg/kg
potency in mouse formalin assay [2]: potent

(Sar)WTLNSAGYKK(Lys-P)K [NAX 306-3]
% Protection at 2 hours afforded by a dose of 4 mg/kg, i.p. ([1]; 4 mg/kg i.p.): 25%
% Protection at 4 hours afforded by a dose of 4 mg/kg, i.p. ([1]; 4 mg/kg i.p.): 0%
ED50 in the 6 Hz limbic seizure model (in Table 14 in parentheses) [1]: (2.7 mg/kg)
phase II response at the active dose [2]: (“flat phase II”)
Active at [2]: 2.7 mg/kg
potency in mouse formalin assay [2]: potent

(Sar)WTLNSAGYLLGPDKDK(Lys-P)DK [NAX 1205-2]
% Protection at 2 hours afforded by a dose of 4 mg/kg, i.p. ([1]; 4 mg/kg i.p.): 50%
% Protection at 4 hours afforded by a dose of 4 mg/kg, i.p. ([1]; 4 mg/kg i.p.): 75%
ED50 in the 6 Hz limbic seizure model (in Table 14 in parentheses) [1]: (1.2 mg/kg)

(Sar)WTLNSAGYLLGPHA(Lys-P) [NAX 306-5]
% Protection at 1, 2 and 4 hours afforded by a dose of 4 mg/kg, i.p. (result in words) ([1]; 4 mg/kg i.p.): Not active

(Sar)WTLNSAGYLLGPRR(Lys-P)R [NAX 1205-3]
% Protection at 2 hours afforded by a dose of 4 mg/kg, i.p. ([1]; 4 mg/kg i.p.): 75%
% Protection at 4 hours afforded by a dose of 4 mg/kg, i.p. ([1]; 4 mg/kg i.p.): 0%

(Sar)WTLNSAGYLLKK(Lys-P)K [NAX 1205-5]
% Protection at 2 hours afforded by a dose of 4 mg/kg, i.p. ([1]; 4 mg/kg i.p.): 25%
% Protection at 4 hours afforded by a dose of 4 mg/kg, i.p. ([1]; 4 mg/kg i.p.): 0%

DPhe-Cys-Phe-DTrp-Lys-Thr-Cys-Thr-NH2 [SEQ ID NO: 148, reference compound]
% Protection at 30 min (4 mg/kg, i.p.) ([1]; 4 mg/kg i.p.): 50%

GWTLNSAGYLLGPHAV [Gal(1-16), reference compound]
anticonvulsant activity of native fragment ([3]; 20 mg/kg i.p.): inactive; also recorded: but not the native GAL(1-16) fragment (20 mg/kg) was effective
% Protection at 1, 2 and 4 hours afforded by a dose of 4 mg/kg, i.p. (result in words) ([1]; 4 mg/kg i.p.): Not active
ED50 following i.c.v. administration ([1]; intracerebroventricular, 6 Hz (32 mA)): 1.7 nmol
activity of native fragment in formalin test ([2]; 20 mg/kg i.p.): inactive

Lys-Lys-Lys(palm)-Lys-Ahx-DPhe-Cys-Phe-DTrp-Lys-Thr-Cys-Thr-NH2 [SEQ ID NO: 149]
% Protection at 30 min (4 mg/kg, i.p.) ([1]; 4 mg/kg i.p.): 100%

Sar-Trp-Thr-Leu-Asn-Ser-Ala-Gly-Tyr-Leu-Leu-Gly-Pro-His-(Lys-palm)-Tle-NH2 [GAL-BBB1]
anticonvulsant activity (protection from tonic hind-limb extension) ([3]; 4 mg/kg i.p., 15-240 min, also higher dose of 12 mg/kg): not active at any time point tested

WAGGDFSGE [DSIP, reference compound]
% Protection at 30 min (4 mg/kg, i.p.) ([1]; 4 mg/kg i.p.): 0%
effect against 6 Hz (22 mA) limbic seizures [1]: effective

[Ahx]GGWAGGDFSGE [SEQ ID NO: 142]
% Protection at 30 min (4 mg/kg, i.p.) ([1]; 4 mg/kg i.p.): 50%
% Protection after 2 hours ([1]; 2 hours, 4 mg/kg i.p.): NO: 142) (100% after 2 hours)
